Assay results from ChEMBL document CHEMBL1126388, “Synthesis of metabolically stable arylpiperazine 5-HT1A receptor agonists” (Bioorg Med Chem Lett, 1992).
pKi: −log10 of the molar value.

How the values were obtained:
Mus musculus [1] = assay: Effective dose required for hypothermia activity after 20 min of oral administration at 2.9 degree F temp in mouse; format: functional
[2] = molecular target: T1, 5-hydroxytryptamine receptor 1A (Mus musculus, UniProt Q64264); assay: Compound was tested for binding affinity to 5-hydroxytryptamine 1A receptor using [3H]8-OH-DPAT as a radioligand
T1 sequence (Q64264 whole entry): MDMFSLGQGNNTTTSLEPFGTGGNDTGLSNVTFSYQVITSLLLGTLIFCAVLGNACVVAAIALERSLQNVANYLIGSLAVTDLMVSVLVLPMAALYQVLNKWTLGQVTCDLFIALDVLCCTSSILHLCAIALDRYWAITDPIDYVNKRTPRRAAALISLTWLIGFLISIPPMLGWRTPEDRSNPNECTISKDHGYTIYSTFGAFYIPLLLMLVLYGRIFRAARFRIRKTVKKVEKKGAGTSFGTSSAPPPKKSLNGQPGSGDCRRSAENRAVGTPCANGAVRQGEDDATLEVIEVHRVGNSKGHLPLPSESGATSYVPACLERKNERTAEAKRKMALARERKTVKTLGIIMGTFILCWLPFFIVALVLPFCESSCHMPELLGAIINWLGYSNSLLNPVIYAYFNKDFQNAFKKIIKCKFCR

Mus musculus [3] = assay: Effective dose required for hypothermia activity after subcutaneous administration at 3.8 degree F temp in mouse; format: functional; conditions: sc
Mus musculus [4] = assay: Effective dose required for hypothermia activity after >120 min of oral administration at 4.0 degree F temp in mouse; format: functional; conditions: 2 h
Mus musculus [5] = assay: Effective dose required for hypothermia activity after subcutaneous administration at 6.4 degree F temp in mouse; format: functional; conditions: sc
Mus musculus [6] = assay: Effective dose required for hypothermia activity after subcutaneous administration at 1.9 degree F temp in mouse; format: functional; conditions: sc

Row | pKi [2] | Compound | ED50 (Mus musculus [1]) | ED50 (Mus musculus [3]) | ED50 (Mus musculus [4]) | ED50 (Mus musculus [5]) | ED50 (Mus musculus [6])
1 | 7.92 | O=C1c2ccccc2S(=O)(=O)N1CCCCN1CCN(c2ncccn2)CC1 [IPSAPIRONE] | 0.23 µmol/kg | 0.00527 µmol/kg |  |  | 
2 | 8.06 | O=C1c2ccccc2S(=O)(=O)N1C[C@H]1C[C@@H]1CN1CCN(c2ncccn2)CC1 |  |  | 0.19 µmol/kg | 0.0032 µmol/kg | 
3 | 7.36 | O=C1c2ccccc2S(=O)(=O)N1C[C@@H]1C[C@@H]1CN1CCN(c2ncccn2)CC1 |  |  |  |  | > 0.055 µmol/kg
